Test results as given in US20260256807A1, “SUBSTITUTED PYRAZOLES AND IMIDAZOLES AS OREXIN RECEPTOR ANTAGONISTS COMPOSITION, METHODS FOR TREATING NEUROLOGICAL AND PSYCHOLOGICAL DISORDERS” (HAGER BIOSCIENCES, LLC, priority 2022, published 2026).

Experiments:
human orexin-1 receptor = biological target: T1, human orexin-1 receptor (Homo sapiens, UniProt O43613); experiment: Intracellular calcium (FLIPR) antagonist assay, CHO cells expressing human orexin-1 receptor, 3 nM orexin-A; type: cell-based; details: 1 uM compound, orexin-A 3 nM; for inhibition at 1 µM: CHO, read-out: OXIR % Inh. @ 1 uM
T1 construct: expressed in transfected cells; host or cells: CHO cells (G418 selection)
T1 sequence (O43613 1-425): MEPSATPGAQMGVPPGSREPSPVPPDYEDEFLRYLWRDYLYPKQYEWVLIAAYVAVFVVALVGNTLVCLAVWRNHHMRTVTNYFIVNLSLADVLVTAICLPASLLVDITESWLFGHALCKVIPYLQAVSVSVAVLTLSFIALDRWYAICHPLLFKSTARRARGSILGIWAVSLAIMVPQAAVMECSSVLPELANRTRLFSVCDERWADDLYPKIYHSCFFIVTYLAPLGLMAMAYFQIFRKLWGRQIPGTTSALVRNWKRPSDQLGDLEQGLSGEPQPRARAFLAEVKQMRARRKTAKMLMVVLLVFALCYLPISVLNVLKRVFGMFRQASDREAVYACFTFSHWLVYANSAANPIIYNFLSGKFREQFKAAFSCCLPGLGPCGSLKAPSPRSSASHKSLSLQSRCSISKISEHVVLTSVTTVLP
Method: (§1) Antagonistic activities on both orexin receptors (i.e., to identify Orexin Receptor Antagonists) have been measured for each example compound using the in vitro assays (intracellular calcium measurements) as described herein. Other assays may also be used to identify Orexin Receptor Antagonists as would be understood by those of ordinary skill in the art. Chinese hamster ovary (CHO) cells expressing the human orexin-1 receptor and the human orexin-2 receptor, respectively, are grown in culture medium (Ham F-12 with L-Glutamine) containing 300 μg/mL G418, 100 U/mL penicillin, 100 μg/mL streptomycin and 10% heat inactivated fetal calf serum (FCS). The cells are seeded at 20′000 cells/well into 384-well black clear bottom sterile plates (Greiner). The seeded plates are incubated overnight at 37° C. in 5% CO2. Human orexin-A as an agonist is prepared as 1 mM stock solution in MeOH: water (1:1), diluted in HBSS containing 0.1% bovine serum albumin (BSA), NaHC03: 0.375 g/L and 20 mM HEPES for use in the assay at a final concentration of 3 nM.
(§2) Antagonists were prepared as 10 mM stock solution in DMSO, then diluted in 384-well plates using DMSO followed by a transfer of the dilutions into in HBSS containing 0.1% bovine serum albumin (BSA), NaHC03: 0.375 g/L and 20 mM HEPES. On the day of the assay, 50 μL of staining buffer (HBSS containing 1% FCS, 20 mM HEPES, NaHC03: 0.375 g/L, 5 mM probenecid (Sigma) and 3 μM of the fluorescent calcium indicator fluro-4 AM (1 mM stock solution in DMSO, containing 10% pluronic) is added to each well. The 384-well cell-plates are incubated for 50 min at 37° C. in 5% C02 followed by equilibration at RT for 30 min before measurement. Within the Fluorescent Imaging Plate Reader (FLIPR Tetra, Molecular Devices), potential Orexin Receptor Antagonists were added to the plate in a volume of 10 μl/well, incubated for 120 min and finally 10 μL/well of agonist is added. Fluorescence was measured for each well at 1 second intervals, and the height of each fluorescence peak compared to the height of the fluorescence peak induced by 3 nM orexin-A with vehicle in place of antagonist. The IC50 value (the concentration of compound needed to inhibit 50% of the agonistic response) was determined and normalized using the obtained IC50 value of an on-plate reference compound. Optimized conditions were achieved by adjustment of pipetting speed and cell splitting regime. The calculated IC50 values fluctuate depending on the daily cellular assay performance, as is known to those skilled in the art. In the case where IC50 values have been determined several times for the same compound, the geometric mean has been given.

human orexin-2 receptor = biological target: T2, human orexin-2 receptor (Homo sapiens, UniProt O43614); experiment: Intracellular calcium (FLIPR) antagonist assay, CHO cells expressing human orexin-2 receptor, 3 nM orexin-A; type: cell-based; details: CHO, 1 uM compound, orexin-A 3 nM, read-out: OX2R % Inh. @ 1uM
T2 construct: expressed in transfected cells; host or cells: CHO cells (G418 selection)
T2 sequence (O43614 1-444): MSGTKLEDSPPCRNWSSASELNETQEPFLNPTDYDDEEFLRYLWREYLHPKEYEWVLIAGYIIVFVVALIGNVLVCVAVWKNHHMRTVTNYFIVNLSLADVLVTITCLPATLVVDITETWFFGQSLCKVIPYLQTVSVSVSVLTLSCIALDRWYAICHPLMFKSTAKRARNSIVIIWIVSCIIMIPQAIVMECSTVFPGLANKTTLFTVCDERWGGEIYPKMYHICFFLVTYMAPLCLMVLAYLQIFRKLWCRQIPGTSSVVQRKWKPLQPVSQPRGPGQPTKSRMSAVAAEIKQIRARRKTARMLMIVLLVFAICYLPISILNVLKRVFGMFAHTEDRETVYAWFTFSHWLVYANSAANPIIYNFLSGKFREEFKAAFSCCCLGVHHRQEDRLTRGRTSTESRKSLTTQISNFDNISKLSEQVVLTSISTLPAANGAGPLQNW
Method: as §1, §2

inhibition at 1 µM (human orexin-1 receptor) | inhibition at 1 µM (human orexin-2 receptor) | OXIR % Inh. @ 1 uM (human orexin-1 receptor) | Compound
102% | 98.8% | – | C[C@@H]1CCN(c2ccc(C(F)(F)F)cn2)CCN1C(=O)c1c(-c2ccccc2F)nn2ccccc12 [Example 53]
23% | 34% | – | Cc1cc(C)nc(N2CC[C@@H](C)N(C(=O)c3nc4ccccn4c3-c3ccccc3)CC2)n1 [Example 69]
71% | 27% | – | C[C@@H]1CCN(c2cnc(C(F)(F)F)cn2)CCN1C(=O)c1nn2c(c1-c1ccccc1)OCCC2 [Example 84]
85.9% | 55.1% | – | C[C@@H]1CCN(c2nc3cc(Cl)ccc3o2)CCN1C(=O)c1c(-c2ccccc2)nn2c1CCCC2 [Example 10]
83% | 57% | – | C[C@@H]1CCN(c2cnc(C(F)(F)F)cn2)CCN1C(=O)c1c(-c2ccccn2)nn2ccccc12 [Example 87]
9.55% | 1.62% | – | O=C(c1c(-c2ccccc2F)nn2c1COCC2)N1CC2CN(c3ccc(C(F)(F)F)cn3)CC2C1 (stereo not drawn) [Example 50]
19.6% | 38.4% | – | Cc1cc(C)nc(N2CC3CN(C(=O)c4c(-c5ccccc5)nc5ccccn45)CC3C2)n1 (stereo not drawn) [Example 43]
100% | 71% | – | C[C@@H]1CCN(c2nc3cc(Cl)ccc3o2)CCN1C(=O)c1nn2cccnc2c1-c1ccccn1 [Example 96]
25% | 10% | – | C[C@@H]1CCN(c2cnc(C(F)(F)F)cn2)CCN1C(=O)c1c(-c2ccccc2)nn2c1COCC2 [Example 89]
69% | 27% | – | C[C@@H]1CCN(c2cnc(C(F)(F)F)cn2)CCN1C(=O)c1nc2ccccn2c1-c1ccccc1 [Example 83]
97% | 27% | – | C[C@@H]1CCN(c2nc3cc(Cl)ccc3o2)CCN1C(=O)c1nc2ccccn2c1-c1ccccc1 [Example 56]
99% | 80% | – | C[C@@H]1CCN(c2nc3cc(Cl)ccc3o2)CCN1C(=O)c1nn2cccnc2c1-c1ccccc1 [Example 67]
91.9% | 99.7% | – | Cc1cc(C)nc(N2CC[C@@H](C)N(C(=O)c3c(-c4ccccc4F)nn4ccccc34)CC2)n1 [Example 54]
19.2% | 56.1% | – | Cc1cc(C)nc(N2CC3CN(C(=O)c4c(-c5ccccc5F)nn5ccccc45)CC3C2)n1 (stereo not drawn) [Example 44]
– | 47% | 76% | COc1ccc(N2CC[C@@H](C)N(C(=O)c3c(-c4ccccn4)nn4ccccc34)CC2)nc1 [Example 81]
28.3% | 36.8% | – | Cc1cc(C)nc(N2CC3CN(C(=O)c4c(-c5ccc(F)cc5)nn5ccccc45)CC3C2)n1 (stereo not drawn) [Example 30]
5% | 17.6% | – | Cc1cc(C)nc(N2CC3CN(C(=O)c4nn5ccccc5c4-c4ccc(F)cc4)CC3C2)n1 (stereo not drawn) [Example 33]
93% | 52% | – | C[C@@H]1CCN(c2cnc(C(F)(F)F)cn2)CCN1C(=O)c1nn2cccnc2c1-c1ccccc1 [Example 85]
100% | 85% | – | C[C@@H]1CCN(c2ccc(C(F)(F)F)cn2)CCN1C(=O)c1c(-c2ccccn2)nn2ccccc12 [Example 64]
79% | 100% | – | Cc1cc(C)nc(N2CC[C@@H](C)N(C(=O)c3c(-c4ccccn4)nn4ccccc34)CC2)n1 [Example 75]
65% | 95% | – | Cc1cc(C)nc(N2CC[C@@H](C)N(C(=O)c3c(-c4ccccc4)nc4ccccn34)CC2)n1 [Example 73]
